{"source": "ChEMBL document CHEMBL3046329", "about": "“Sensitivity to silthiofam, tebuconazole and difenoconazole of Gaeumannomyces graminis var. tritici isolates from China” (Pest Manag Sci, 2012)", "type_in_all_cases": "functional, organism-based", "key": {"Gaeumannomyces tritici [1]": {"system": "Gaeumannomyces tritici", "test": "Antifungal activity against sithiofam-sensitive Gaeumannomyces graminis var. tritici isolate HN23 expressing C2 genetic cluster assessed as reduction in fungal colony diameter after 4 days", "conditions": "isolate HN23, 96 h"}, "Gaeumannomyces tritici [2]": {"system": "Gaeumannomyces tritici", "test": "Antifungal activity against sithiofam-resistant Gaeumannomyces graminis var. tritici isolate HN07 expressing C1 genetic cluster assessed as reduction in fungal colony diameter after 4 days", "conditions": "isolate HN07, 96 h"}, "Gaeumannomyces tritici [3]": {"system": "Gaeumannomyces tritici", "test": "Antifungal activity against sithiofam-sensitive Gaeumannomyces graminis var. tritici isolate HN29 expressing C2 genetic cluster assessed as reduction in fungal colony diameter after 4 days", "conditions": "isolate HN29, 96 h"}, "Gaeumannomyces tritici [4]": {"system": "Gaeumannomyces tritici", "test": "Antifungal activity against sithiofam-sensitive Gaeumannomyces graminis var. tritici isolate HN30 expressing C2 genetic cluster assessed as reduction in fungal colony diameter after 4 days", "conditions": "isolate HN30, 96 h"}, "Gaeumannomyces tritici [5]": {"system": "Gaeumannomyces tritici", "test": "Antifungal activity against sithiofam-sensitive Gaeumannomyces graminis var. tritici isolate AH16 expressing C2 genetic cluster assessed as reduction in fungal colony diameter after 4 days", "conditions": "isolate AH16, 96 h"}, "Gaeumannomyces tritici [6]": {"system": "Gaeumannomyces tritici", "test": "Antifungal activity against sithiofam-sensitive Gaeumannomyces graminis var. tritici isolate HN18 expressing C2 genetic cluster assessed as reduction in fungal colony diameter after 4 days", "conditions": "isolate HN18, 96 h"}, "Gaeumannomyces tritici [7]": {"system": "Gaeumannomyces tritici", "test": "Antifungal activity against sithiofam-resistant Gaeumannomyces graminis var. tritici isolate HN06 expressing C1 genetic cluster assessed as reduction in fungal colony diameter after 4 days", "conditions": "isolate HN06, 96 h"}, "Gaeumannomyces tritici [8]": {"system": "Gaeumannomyces tritici", "test": "Antifungal activity against sithiofam-sensitive Gaeumannomyces graminis var. tritici isolate HN19 expressing C2 genetic cluster assessed as reduction in fungal colony diameter after 4 days", "conditions": "isolate HN19, 96 h"}, "Gaeumannomyces tritici [9]": {"system": "Gaeumannomyces tritici", "test": "Antifungal activity against sithiofam-resistant Gaeumannomyces graminis var. tritici isolate HN09 expressing C1 genetic cluster assessed as reduction in fungal colony diameter after 4 days", "conditions": "isolate HN09, 96 h"}, "Gaeumannomyces tritici [10]": {"system": "Gaeumannomyces tritici", "test": "Antifungal activity against sithiofam-resistant Gaeumannomyces graminis var. tritici isolate JS04 expressing C1 genetic cluster assessed as reduction in fungal colony diameter after 4 days", "conditions": "isolate JS04, 96 h"}, "Gaeumannomyces tritici [11]": {"system": "Gaeumannomyces tritici", "test": "Antifungal activity against sithiofam-resistant Gaeumannomyces graminis var. tritici isolate HN27 expressing […] genetic cluster assessed as reduction in fungal colony diameter after 4 days", "conditions": "isolate HN27, 96 h"}, "Gaeumannomyces tritici [12]": {"system": "Gaeumannomyces tritici", "test": "Antifungal activity against sithiofam-sensitive Gaeumannomyces graminis var. tritici isolate HN17 expressing C2 genetic cluster assessed as reduction in fungal colony diameter after 4 days", "conditions": "isolate HN17, 96 h"}, "Gaeumannomyces tritici [13]": {"system": "Gaeumannomyces tritici", "test": "Antifungal activity against sithiofam-sensitive Gaeumannomyces graminis var. tritici isolate AH09 expressing C2 genetic cluster assessed as reduction in fungal colony diameter after 4 days", "conditions": "isolate AH09, 96 h"}, "Gaeumannomyces tritici [14]": {"system": "Gaeumannomyces tritici", "test": "Antifungal activity against sithiofam-sensitive Gaeumannomyces graminis var. tritici isolate HN15 expressing C2 genetic cluster assessed as reduction in fungal colony diameter after 4 days", "conditions": "isolate HN15, 96 h"}, "Gaeumannomyces tritici [15]": {"system": "Gaeumannomyces tritici", "test": "Antifungal activity against sithiofam-resistant Gaeumannomyces graminis var. tritici isolate JS11 expressing C1 genetic cluster assessed as reduction in fungal colony diameter after 4 days", "conditions": "isolate JS11, 96 h"}, "Gaeumannomyces tritici [16]": {"system": "Gaeumannomyces tritici", "test": "Antifungal activity against sithiofam-sensitive Gaeumannomyces graminis var. tritici isolate HN25 expressing C2 genetic cluster assessed as reduction in fungal colony diameter after 4 days", "conditions": "isolate HN25, 96 h"}, "Gaeumannomyces tritici [17]": {"system": "Gaeumannomyces tritici", "test": "Antifungal activity against sithiofam-sensitive Gaeumannomyces graminis var. tritici isolate HN11 expressing C2 genetic cluster assessed as reduction in fungal colony diameter after 4 days", "conditions": "isolate HN11, HN11, 96 h"}, "Gaeumannomyces tritici [18]": {"system": "Gaeumannomyces tritici", "test": "Antifungal activity against sithiofam-resistant Gaeumannomyces graminis var. tritici isolate JS06 expressing C1 genetic cluster assessed as reduction in fungal colony diameter after 4 days", "conditions": "isolate JS06, 96 h"}, "Gaeumannomyces tritici [19]": {"system": "Gaeumannomyces tritici", "test": "Antifungal activity against sithiofam-resistant Gaeumannomyces graminis var. tritici isolate HN05 expressing C1 genetic cluster assessed as reduction in fungal colony diameter after 4 days", "conditions": "isolate HN05, 96 h"}, "Gaeumannomyces tritici [20]": {"system": "Gaeumannomyces tritici", "test": "Antifungal activity against sithiofam-resistant Gaeumannomyces graminis var. tritici isolate JS07 expressing C1 genetic cluster assessed as reduction in fungal colony diameter after 4 days", "conditions": "isolate JS07, 96 h"}, "Gaeumannomyces tritici [21]": {"system": "Gaeumannomyces tritici", "test": "Antifungal activity against sithiofam-resistant Gaeumannomyces graminis var. tritici isolate HN03 expressing C1 genetic cluster assessed as reduction in fungal colony diameter after 4 days", "conditions": "isolate HN03, 96 h"}, "Gaeumannomyces tritici [22]": {"system": "Gaeumannomyces tritici", "test": "Antifungal activity against sithiofam-resistant Gaeumannomyces graminis var. tritici isolate HN04 expressing C1 genetic cluster assessed as reduction in fungal colony diameter after 4 days", "conditions": "isolate HN04, 96 h"}, "Gaeumannomyces tritici [23]": {"system": "Gaeumannomyces tritici", "test": "Antifungal activity against sithiofam-sensitive Gaeumannomyces graminis var. tritici isolate JS01 expressing C1 genetic cluster assessed as reduction in fungal colony diameter after 4 days", "conditions": "isolate JS01, 96 h"}, "Gaeumannomyces tritici [24]": {"system": "Gaeumannomyces tritici", "test": "Antifungal activity against sithiofam-resistant Gaeumannomyces graminis var. tritici isolate AH14 expressing C1 genetic cluster assessed as reduction in fungal colony diameter after 4 days", "conditions": "isolate AH14, 96 h"}, "Gaeumannomyces tritici [25]": {"system": "Gaeumannomyces tritici", "test": "Antifungal activity against sithiofam-resistant Gaeumannomyces graminis var. tritici isolate JS09 expressing C1 genetic cluster assessed as reduction in fungal colony diameter after 4 days", "conditions": "isolate JS09, 96 h"}, "Gaeumannomyces tritici [26]": {"system": "Gaeumannomyces tritici", "test": "Antifungal activity against sithiofam-resistant Gaeumannomyces graminis var. tritici isolate JS05 expressing C1 genetic cluster assessed as reduction in fungal colony diameter after 4 days", "conditions": "isolate JS05, 96 h"}, "Gaeumannomyces tritici [27]": {"system": "Gaeumannomyces tritici", "test": "Antifungal activity against sithiofam-sensitive Gaeumannomyces graminis var. tritici isolate HN14 expressing C2 genetic cluster assessed as reduction in fungal colony diameter after 4 days", "conditions": "isolate HN14, 96 h"}, "Gaeumannomyces tritici [28]": {"system": "Gaeumannomyces tritici", "test": "Antifungal activity against sithiofam-sensitive Gaeumannomyces graminis var. tritici isolate AH15 expressing C2 genetic cluster assessed as reduction in fungal colony diameter after 4 days", "conditions": "isolate AH15, 96 h"}, "Gaeumannomyces tritici [29]": {"system": "Gaeumannomyces tritici", "test": "Antifungal activity against sithiofam-resistant Gaeumannomyces graminis var. tritici isolate AH10 expressing C1 genetic cluster assessed as reduction in fungal colony diameter after 4 days", "conditions": "isolate AH10, 96 h"}, "Gaeumannomyces tritici [30]": {"system": "Gaeumannomyces tritici", "test": "Antifungal activity against sithiofam-sensitive Gaeumannomyces graminis var. tritici isolate AH01 expressing C2 genetic cluster assessed as reduction in fungal colony diameter after 4 days", "conditions": "isolate AH01, 96 h"}, "Gaeumannomyces tritici [31]": {"system": "Gaeumannomyces tritici", "test": "Antifungal activity against sithiofam-resistant Gaeumannomyces graminis var. tritici isolate AH02 expressing C1 genetic cluster assessed as reduction in fungal colony diameter after 4 days", "conditions": "isolate AH02, 96 h"}, "Gaeumannomyces tritici [32]": {"system": "Gaeumannomyces tritici", "test": "Antifungal activity against sithiofam-sensitive Gaeumannomyces graminis var. tritici isolate SD01 expressing C2 genetic cluster assessed as reduction in fungal colony diameter after 4 days", "conditions": "isolate SD01, 96 h"}, "Gaeumannomyces tritici [33]": {"system": "Gaeumannomyces tritici", "test": "Antifungal activity against sithiofam-sensitive Gaeumannomyces graminis var. tritici isolate HN21 expressing C2 genetic cluster assessed as reduction in fungal colony diameter after 4 days", "conditions": "isolate HN21, 96 h"}, "Gaeumannomyces tritici [34]": {"system": "Gaeumannomyces tritici", "test": "Antifungal activity against sithiofam-resistant Gaeumannomyces graminis var. tritici isolate HN01 expressing C1 genetic cluster assessed as reduction in fungal colony diameter after 4 days", "conditions": "isolate HN01, 96 h"}, "Gaeumannomyces tritici [35]": {"system": "Gaeumannomyces tritici", "test": "Antifungal activity against sithiofam-sensitive Gaeumannomyces graminis var. tritici isolate AH05 expressing C2 genetic cluster assessed as reduction in fungal colony diameter after 4 days", "conditions": "isolate AH05, 96 h"}, "Gaeumannomyces tritici [36]": {"system": "Gaeumannomyces tritici", "test": "Antifungal activity against sithiofam-sensitive Gaeumannomyces graminis var. tritici isolate JS02 expressing C1 genetic cluster assessed as reduction in fungal colony diameter after 4 days", "conditions": "isolate JS02, 96 h"}, "Gaeumannomyces tritici [37]": {"system": "Gaeumannomyces tritici", "test": "Antifungal activity against sithiofam-sensitive Gaeumannomyces graminis var. tritici isolate SD04 expressing C2 genetic cluster assessed as reduction in fungal colony diameter after 4 days", "conditions": "isolate SD04, 96 h"}}}
{"smiles": "C=CCNC(=O)c1c([Si](C)(C)C)sc(C)c1C", "note": "[SILTHIOFAM]", "values": [{"measurement": "EC50", "setting": "Gaeumannomyces tritici [1]", "result": 0.9, "unit": "ng/mL"}, {"measurement": "EC50", "setting": "Gaeumannomyces tritici [2]", "result": 29800, "unit": "ng/mL"}, {"measurement": "EC50", "setting": "Gaeumannomyces tritici [3]", "result": 0.2, "unit": "ng/mL"}, {"measurement": "EC50", "setting": "Gaeumannomyces tritici [4]", "result": 1.4, "unit": "ng/mL"}, {"measurement": "EC50", "setting": "Gaeumannomyces tritici [5]", "result": 0.3, "unit": "ng/mL"}, {"measurement": "EC50", "setting": "Gaeumannomyces tritici [6]", "result": 0.5, "unit": "ng/mL"}, {"measurement": "EC50", "setting": "Gaeumannomyces tritici [7]", "result": 29900, "unit": "ng/mL"}, {"measurement": "EC50", "setting": "Gaeumannomyces tritici [8]", "result": 0.1, "unit": "ng/mL"}, {"measurement": "EC50", "setting": "Gaeumannomyces tritici [9]", "result": 106000, "unit": "ng/mL"}, {"measurement": "EC50", "setting": "Gaeumannomyces tritici [10]", "result": 30300, "unit": "ng/mL"}, {"measurement": "EC50", "setting": "Gaeumannomyces tritici [11]", "result": 121000, "unit": "ng/mL"}, {"measurement": "EC50", "setting": "Gaeumannomyces tritici [12]", "result": 1, "unit": "ng/mL"}, {"measurement": "EC50", "setting": "Gaeumannomyces tritici [13]", "result": 0.3, "unit": "ng/mL"}, {"measurement": "EC50", "setting": "Gaeumannomyces tritici [14]", "result": 1.1, "unit": "ng/mL"}, {"measurement": "EC50", "setting": "Gaeumannomyces tritici [15]", "result": 46800, "unit": "ng/mL"}, {"measurement": "EC50", "setting": "Gaeumannomyces tritici [16]", "result": 1.1, "unit": "ng/mL"}, {"measurement": "EC50", "setting": "Gaeumannomyces tritici [17]", "result": 0.7, "unit": "ng/mL"}, {"measurement": "EC50", "setting": "Gaeumannomyces tritici [18]", "result": 111000, "unit": "ng/mL"}, {"measurement": "EC50", "setting": "Gaeumannomyces tritici [19]", "result": 23800, "unit": "ng/mL"}, {"measurement": "EC50", "setting": "Gaeumannomyces tritici [20]", "result": 24700, "unit": "ng/mL"}, {"measurement": "EC50", "setting": "Gaeumannomyces tritici [21]", "result": 30000, "unit": "ng/mL"}, {"measurement": "EC50", "setting": "Gaeumannomyces tritici [22]", "result": 31900, "unit": "ng/mL"}, {"measurement": "EC50", "setting": "Gaeumannomyces tritici [23]", "result": 0.2, "unit": "ng/mL"}, {"measurement": "EC50", "setting": "Gaeumannomyces tritici [24]", "result": 39900, "unit": "ng/mL"}, {"measurement": "EC50", "setting": "Gaeumannomyces tritici [25]", "result": 34200, "unit": "ng/mL"}, {"measurement": "EC50", "setting": "Gaeumannomyces tritici [26]", "result": 24700, "unit": "ng/mL"}, {"measurement": "EC50", "setting": "Gaeumannomyces tritici [27]", "result": 0.9, "unit": "ng/mL"}, {"measurement": "EC50", "setting": "Gaeumannomyces tritici [28]", "result": 0.5, "unit": "ng/mL"}, {"measurement": "EC50", "setting": "Gaeumannomyces tritici [29]", "result": 57600, "unit": "ng/mL"}, {"measurement": "EC50", "setting": "Gaeumannomyces tritici [30]", "result": 1.1, "unit": "ng/mL"}, {"measurement": "EC50", "setting": "Gaeumannomyces tritici [31]", "result": 51800, "unit": "ng/mL"}, {"measurement": "EC50", "setting": "Gaeumannomyces tritici [32]", "result": 0.8, "unit": "ng/mL"}, {"measurement": "EC50", "setting": "Gaeumannomyces tritici [33]", "result": 0.5, "unit": "ng/mL"}, {"measurement": "EC50", "setting": "Gaeumannomyces tritici [34]", "result": 82700, "unit": "ng/mL"}, {"measurement": "EC50", "setting": "Gaeumannomyces tritici [35]", "result": 1.3, "unit": "ng/mL"}, {"measurement": "EC50", "setting": "Gaeumannomyces tritici [36]", "result": 1.3, "unit": "ng/mL"}, {"measurement": "EC50", "setting": "Gaeumannomyces tritici [37]", "result": 0.2, "unit": "ng/mL"}]}
